Measured values as given in paper PMC10423561, “Effects of the CYP3A inhibitors, voriconazole, itraconazole, and fluconazole on the pharmacokinetics of osimertinib in rats” (PeerJ, 2023).
Several values for one entry are separate records, joined by “and”; a condition that tells them apart may be missing. Identical values can stand only once. Like-named read-outs stand apart in the source and are kept apart here.

Columns and labels:
[1] = design: method as in Brown et al., 2017; conditions: with ICZ compared with OSIM administered alone; ref Brown et al., 2017; cited from earlier work
[2] = Pharmacokinetic study of OSIM in rats, alone or after voriconazole, itraconazole or fluconazole pretreatment (plasma concentration by HPLC-MS/MS); type: in vivo, Sprague-Dawley rats; design: Conc. (plasma): unit not given here; conditions: for Conc. (plasma): individual rats; for AUC(0-inf) / AUC(0-t) / CL/F / Cmax / Tmax / Vd/F / half-life / MRT inf: male, Sprague-Dawley, rat, plasma, po, 10 mg/kg; for Vd/F: read-out: Vz/F; for MRT inf: read-out: MRT0–inf
Description: A liquid chromatography with tandem mass spectrometry (HPLC-MS/MS) system coupled to a JasperTM HPLC and Triple […] and equipped with an electrospray ionization (ESI) interface source (AB Sciex, Redwood City, CA, USA) was used for the analysis. […] Waters Corp., Milford, MA, USA) maintained at 45 °C. Mobile phase A was 0.2% formic acid in water, and mobile phase B was acetonitrile. […] Carry-over was minimized with methanol-acetonitrile-isopropanol-water solution (1:1:1:1, v/v/v/v) before and after the injection procedure. […] Subsequently, all samples were vortex-mixed for 30 s and were centrifuged at 14,000 × g for 10 min. Finally, each sample was reconstituted with an aliquot of mobile phase A. The sample was transferred to a 0.8 mL 96-well plate, of which 5 μL was injected into HPLC-MS/MS system for analysis. Twenty-four adult male Sprague-Dawley rats (220 ± 20 g) with specific pathogen free were supplied by the Laboratory Animal Center of Zhejiang Provincial People's Hospital. […] The study was performed in accordance with the Animal Care and Use Committee of Zhejiang Provincial People's Hospital (number: […], and FCZ were prepared in 0.3% carboxymethyl cellulose sodium (CMC-Na). After 12 h of fasting and free water consumption, the rats were randomly separated into four groups, and the sample size was based on a similar study using as few rats as possible (n = 6): control (equivalent volume of 0.3% CMC-Na), VCZ (20 mg/kg), ICZ (20 mg/kg), and FCZ (20 mg/kg) groups. Only those responsible for treatment management researchers know this group well. Each group was housed in a single cage. The rats in the four groups were orally dosed once daily with 0.3% CMC-Na, VCZ, ICZ, or FCZ, respectively; they reached steady-state exposure after five continuous days of dosing. […] All rats received an oral gavage dose of approximately equivalent volume treatment regimens (one mL). Rats were restrained on the rat fixator on the laboratory bench. […] Experimental data were given as mean ± standard deviation (SD). The mean concentration levels of OSIM versus time profile were drawn using GraphPad Prism 9.4 (GraphPad Software, Inc., San Diego, CA, USA). […] SPSS 26.0 was used for statistical analysis (IBM, Armonk, USA). Significant differences among the groups were identified using one-way ANOVA and Tukey test. P < 0.05 was considered significant.

[3] = ICZ group vs control, rats, P < 0.05
[4] = OSIM 10 mg/kg oral after fluconazole 20 mg/kg oral once daily for 5 days, rats, n = 6
[5] = OSIM 10 mg/kg oral after voriconazole 20 mg/kg oral once daily for 5 days, rats, n = 6
[6] = co-administered with itraconazole vs control, rats
[7] = co-administration with VCZ vs OSIM alone, rats
[8] = co-administration with fluconazole vs control, rats
[9] = OSIM 10 mg/kg oral after itraconazole 20 mg/kg oral once daily for 5 days, rats, n = 6
[10] = OSIM 10 mg/kg oral, control (0.3% CMC-Na), rats, n = 6, mean ± SD

C=CC(=O)Nc1cc(Nc2nccc(-c3cn(C)c4ccccc34)n2)c(OC)cc1N(C)CCN(C)C [OSIM, Osimertinib]
increase in AUC0–t of OSIM [1]: approximately 8%
Conc. (plasma) ([2]; Con group (OSIM alone), Time 0.25): 8.0671 and 11.9979
Conc. (plasma) ([2]; Con group (OSIM alone), Time 0.5): 12.1988 and 19.9452
Conc. (plasma) ([2]; Con group (OSIM alone), Time 1): 26.2008 and 25.1352
Conc. (plasma) ([2]; Con group (OSIM alone), Time 2): 34.4763 and 31.6327
Conc. (plasma) ([2]; Con group (OSIM alone), Time 4): 32.976 and 28.9864
Conc. (plasma) ([2]; Con group (OSIM alone), Time 5): 24.2861 and 21.3664
Conc. (plasma) ([2]; Con group (OSIM alone), Time 6): 16.055 and 19.5716 and 16.4633
Conc. (plasma) ([2]; Con group (OSIM alone), Time 8): 9.5939 and 12.9324 and 12.4752
Conc. (plasma) ([2]; Con group (OSIM alone), Time 12): 3.1238 and 5.2228 and 5.1031
Conc. (plasma) ([2]; Con group (OSIM alone), Time 24): 0.3493 and 0.667
Conc. (plasma) ([2]; Con group (OSIM alone), Time 48): 0.1948 and 0.7004
AUC0–t of OSIM enhanced by ([2]; FCZ group vs control, rats): ~1.01 fold
Cmax of OSIM enhanced by ([2]; FCZ group vs control, rats): approximately 0.53 fold
reduction of Cl/F of OSIM ([2]; FCZ group vs control, rats): 49.49%
reduction of Vz/F of OSIM ([2]; FCZ group vs control, rats): 55.89%
Conc. (plasma) ([2]; Flu group (fluconazole pretreatment), Time 0.25): 7.8097 and 15.8697
Conc. (plasma) ([2]; Flu group (fluconazole pretreatment), Time 0.5): 11.781 and 29.3217
Conc. (plasma) ([2]; Flu group (fluconazole pretreatment), Time 1): 19.1216
Conc. (plasma) ([2]; Flu group (fluconazole pretreatment), Time 2): 33.0063 and 43.3299
Conc. (plasma) ([2]; Flu group (fluconazole pretreatment), Time 3): 39.5899 and 53.0362
Conc. (plasma) ([2]; Flu group (fluconazole pretreatment), Time 4): 43.6983 and 40.9109
Conc. (plasma) ([2]; Flu group (fluconazole pretreatment), Time 5): 33.9054 and 36.7921
Conc. (plasma) ([2]; Flu group (fluconazole pretreatment), Time 6): 33.9688
Conc. (plasma) ([2]; Flu group (fluconazole pretreatment), Time 8): 18.8994 and 29.246 and 22.772
Conc. (plasma) ([2]; Flu group (fluconazole pretreatment), Time 12): 8.5799 and 18.5501 and 14.3797
Conc. (plasma) ([2]; Flu group (fluconazole pretreatment), Time 24): 1.2033 and 2.0928 and 2.1757
Conc. (plasma) ([2]; Flu group (fluconazole pretreatment), Time 48): 0.3201 and 0.2978
decrease in Vz/F of OSIM [2, 3]: 38.08%
decrease in t1/2 of OSIM [2, 3]: 25.41%
Conc. (plasma) ([2]; Itr group (itraconazole pretreatment), Time 0.25): 5.2753 and 10.1717
Conc. (plasma) ([2]; Itr group (itraconazole pretreatment), Time 0.5): 2.137 and 22.1484
Conc. (plasma) ([2]; Itr group (itraconazole pretreatment), Time 1): 14.402 and 30.439
Conc. (plasma) ([2]; Itr group (itraconazole pretreatment), Time 2): 19.1571 and 37.1482
Conc. (plasma) ([2]; Itr group (itraconazole pretreatment), Time 3): 31.5023
Conc. (plasma) ([2]; Itr group (itraconazole pretreatment), Time 4): 27.9801
Conc. (plasma) ([2]; Itr group (itraconazole pretreatment), Time 5): 22.7144 and 26.9275
Conc. (plasma) ([2]; Itr group (itraconazole pretreatment), Time 6): 27.5418 and 15.763 and 19.3207
Conc. (plasma) ([2]; Itr group (itraconazole pretreatment), Time 8): 24.0911 and 10.4766 and 13.0808
Conc. (plasma) ([2]; Itr group (itraconazole pretreatment), Time 12): 4.7714 and 7.383
Conc. (plasma) ([2]; Itr group (itraconazole pretreatment), Time 24): 1.7983 and 0.7083 and 1.0943
Conc. (plasma) ([2]; Itr group (itraconazole pretreatment), Time 48): 0.2444 and 0.2377
MRT0–inf [2, 4]: 8.32 ± 0.47 h
t1/2 [2, 4]: 5.75 ± 0.25 h
t1/2 [2, 5]: 3.82 ± 0.34 h
decrease in Cl/F of OSIM ([2]; VCZ group vs control, rats): 37.74%
decrease in Vz/F of OSIM ([2]; VCZ group vs control, rats): 64.03%
decrease in t1/2 of OSIM ([2]; VCZ group vs control, rats): 42.56%
other parameters (Cmax, Tmax, AUC, MRT, and Cl/F) compared with the control group ([2]; administration of OSIM with ICZ, rats): not significantly different
increase in AUC0–t of OSIM [2, 6]: 34.80%
increase in Cmax of OSIM [2, 6]: 13.91%
effect on t1/2 and Tmax of orally administered OSIM ([2]; co-administration with FCZ vs control, rats): did not significantly alter
increase in AUC0–t of OSIM [2, 7]: 62.56%
increase in Cmax of OSIM [2, 7]: 58.04%
increase in AUC0–t of OSIM [2, 8]: 100.98%
increase in Cmax of OSIM [2, 8]: 53.45%
AUC(0-inf) [2, 4]: 524 ± 92.4 ng·h/mL
AUC(0-t) [2, 4]: 521 ± 92.5 ng·h/mL
CL/F [2, 4]: 325 mL/min/kg
Cmax [2, 4]: 50.8 ± 8.41 ng/mL
Tmax [2, 4]: 3.17 ± 0.98 h
Vd/F [2, 4]: 162 ± 26.7 L/kg
AUC(0-inf) [2, 9]: 357 ± 99.7 ng·h/mL
AUC(0-t) [2, 9]: 350 ± 96.3 ng·h/mL
CL/F [2, 9]: 504 mL/min/kg
Cmax [2, 9]: 37.7 ± 11.5 ng/mL
Tmax [2, 9]: 3.83 ± 1.6 h
half-life [2, 9]: 4.96 ± 1.1 h
MRT inf [2, 9]: 7.51 ± 0.6 h
Vd/F [2, 9]: 228 ± 127 L/kg
AUC(0-inf) [2, 5]: 422 ± 57.9 ng·h/mL
AUC(0-t) [2, 5]: 422 ± 58.4 ng·h/mL
CL/F [2, 5]: 401 mL/min/kg
Cmax [2, 5]: 52.3 ± 10.5 ng/mL
Tmax [2, 5]: 2.83 ± 0.41 h
MRT inf [2, 5]: 6.83 ± 0.36 h
Vd/F [2, 5]: 132 ± 17.9 L/kg
AUC(0-inf) [2, 10]: 264 ± 34.4 ng·h/mL
AUC(0-t) [2, 10]: 259 ± 33.1 ng·h/mL
CL/F [2, 10]: 644 mL/min/kg
Cmax [2, 10]: 33.1 ± 3.66 ng/mL
Tmax [2, 10]: 2.33 ± 0.52 h
half-life [2, 10]: 6.65 ± 0.48 h
MRT inf [2, 10]: 7.61 ± 0.74 h
Vd/F [2, 10]: 368 ± 36.3 L/kg
Conc. (plasma) ([2]; vor group (voriconazole pretreatment), Time 0.25): 7.2019 and 17.8367
Conc. (plasma) ([2]; vor group (voriconazole pretreatment), Time 0.5): 35.8513
Conc. (plasma) ([2]; vor group (voriconazole pretreatment), Time 1): 38.47
Conc. (plasma) ([2]; vor group (voriconazole pretreatment), Time 2): 40.5898 and 38.9958
Conc. (plasma) ([2]; vor group (voriconazole pretreatment), Time 3): 68.6321 and 46.961
Conc. (plasma) ([2]; vor group (voriconazole pretreatment), Time 4): 35.6688 and 44.311
Conc. (plasma) ([2]; vor group (voriconazole pretreatment), Time 5): 28.7864 and 35.6992
Conc. (plasma) ([2]; vor group (voriconazole pretreatment), Time 6): 35.4312 and 22.8434 and 29.124
Conc. (plasma) ([2]; vor group (voriconazole pretreatment), Time 8): 20.9535 and 15.9897 and 16.5811
Conc. (plasma) ([2]; vor group (voriconazole pretreatment), Time 12): 10.8434 and 7.3402 and 9.397
Conc. (plasma) ([2]; vor group (voriconazole pretreatment), Time 24): 0.9533 and 0.6206
Conc. (plasma) ([2]; vor group (voriconazole pretreatment), Time 48): 0.0227 and 0.021
